Experimental data published in patent US20160374967A1, “ORGANIC THIOPHOSPHATE ANTIRETROVIRAL AGENTS” (The Government of the U.S.A., as Represented by the …, priority 2006, published 2016).
Read-outs that look alike come from different tables or passages of the source.

What was measured:
HIV [1] = assay: microbe, parasite or virus in culture; type: cell-based; details: for duration of action (anti-HIV, cell culture): cysteamine re-added every 12 hours, WR-1065 added once in 72 hour period
HIV-1BZ-167 = assay: HIV-1 replication in PHA-blasts by p24 ELISA, dose-response and combinations; type: cell-based; details: for IC50: n=3, read-out: 50% Inhibition of virus replication
PHA-blasts [2] = details: human, 72 h
[3] = mouse, in vivo; cited from earlier work
[4] = cited from earlier work
[5] = mice, cited from earlier work
[6] = in vivo; cited from earlier work
PHA blasts = assay: Viability of PHA blasts exposed to WR-1065 (no HIV), 72 h; type: cell-based, human
TK6 cells = assay: 14-day survival of TK6 cells in continuous presence of WR-1065; type: cell-based, human
HIV [7] = type: cell-based; details: human T-lymphocytes
adenovirus = assay: Antiviral efficacy against adenovirus; details: three different species of adenovirus
[8] = rhesus macaques, duodenal 150 mg/kg BW of amifostine or phosphonol, cited from earlier work
PHA-blasts [9] = assay: Cell survival (cytotoxicity) by trypan blue in HIV-1 infected PHA-blasts
[10] = metabolite after amifostine injection at 500-910 mg/m^2
[11] = metabolite after amifostine injection

**Q.** Which results are given for Cc1cn([C@H]2C[C@H](N=[N+]=[N-])[C@@H](CO)O2)c(=O)[nH]c1=O [AZT, Zidovudine, reference compound]?
**A.** HIV Viral P24 (HIV [1]; Experiment #1, 10 μM AZT, 72 h): 0.13 pg/mL; HIV Viral P24 (HIV [1]; Experiment #2, 10 μM AZT, 72 h): 9.07 pg/mL; HIV Viral P24 (HIV [1]; Experiment #3, 10 μM AZT, 72 h): 2.9 pg/mL; inhibition at 10 µM (HIV [1]; Human immunodeficiency virus 1, PBMC, 72 h, Experiment #1, 10 μM AZT, 72 h, read-out: Estimated percent inhibition): ~100%; inhibition at 10 µM (HIV [1]; Human immunodeficiency virus 1, PBMC, 72 h, Experiment #2, 10 μM AZT, 72 h, read-out: Estimated percent inhibition): 94.9%; inhibition at 10 µM (HIV [1]; Human immunodeficiency virus 1, PBMC, 72 h, Experiment #3, 10 μM AZT, 72 h, read-out: Estimated percent inhibition): ~100%; inhibition of virus replication (HIV-1BZ-167; AZT 0.8, 3.0 and 5.0 μM): 85-96%; dose for 50% reduction in HIV-1 replication, fold lower than that of WR-1065 (HIV-1BZ-167; AZT versus WR-1065): about 1000 fold; inhibition at 7.75 µM (HIV-1BZ-167; Human immunodeficiency virus 1, 7.75 μM, alone, mean±SD, n=4): 96.7 ± 5.1%; IC50 (HIV-1BZ-167; Human immunodeficiency virus 1, dose-response 1.9-117.0 nM, mean±SE): 0.0035 ± 0.0007 µM; target cell survival (PHA-blasts [2]; 7.75 μM): 54±15%

**Q.** With NCCCNCCSP(=O)(O)O [Amifostine, S-2-(3-aminopropyl)aminoethyl phosphorothioic acid] as the compound, how does the inhibition at 50 µM (HIV-1BZ-167; Human immunodeficiency virus 1, 50 μM amifostine (with alkaline phosphatase), mean±SE, n=4) read?
**A.** 75.4 ± 8.3%

**Q.** And the cell survival (PHA-blasts [2]; 50 μM)?
**A.** 53±10%

**Q.** What about the “100% effective radioprotective dose” value [3] of the same compound?
**A.** about one half of the MTD

**Q.** What about the “plasma T1/2” value ([4]; in vivo) of the same compound?
**A.** ~0.167 h

**Q.** And the “maximally tolerated dose (MTD)” value ([5]; i.p.)?
**A.** 432 mg/kg BW

**Q.** And the “maximally tolerated dose (MTD)” value ([5]; p.o.)?
**A.** 720 mg/kg BW

**Q.** And the “effects of single doses of up to 2700 mg/m^2” value [6]?
**A.** no untoward effects

**Q.** With NCCS [Cysteamine, reference compound] as the compound, how does the “suppression of HIV replication” value (HIV [1]; 200 μM) read?
**A.** ~100%

**Q.** What about the “duration of action (anti-HIV, cell culture)” value (HIV [1]) of the same compound?
**A.** very short

**Q.** Which “in vitro anti-HIV potency relative to cysteamine” value (HIV [1]) does the source give for NCCCNCCS [WR-1065, 2-(3-aminopropylamino)ethanethiol] here?
**A.** 2 fold

**Q.** And the “HIV inhibition in human PBMCs (in words)” value (HIV [1]; Experiment #1, 1000 μM)?
**A.** inhibits HIV completely

**Q.** What about the “HIV Viral P24” value (HIV [1]; Experiment #1, 1000 μM WR-1065, 72 h) of the same compound?
**A.** 0.13 pg/mL

**Q.** What about the “influence on the effect of 10 μM AZT” value (HIV [1]; Experiment #1, 1000 μM WR-1065 with 10 μM AZT) of the same compound?
**A.** does not appear to alter

**Q.** And the “HIV Viral P24” value (HIV [1]; Experiment #2, 100 μM WR-1065, 72 h)?
**A.** 8.92 pg/mL

**Q.** What about the “HIV Viral P24” value (HIV [1]; Experiment #2, 330 μM WR-1065, 72 h) of the same compound?
**A.** 9.31 pg/mL

**Q.** What about the “HIV Viral P24” value (HIV [1]; Experiment #2, 1000 μM WR-1065, 72 h) of the same compound?
**A.** 8.92 pg/mL

**Q.** What about the “HIV infection inhibition in human PBMCs (in words)” value (HIV [1]; Experiment #2, concentrations as low as 100 μM) of the same compound?
**A.** inhibit HIV infection completely

**Q.** What about the “HIV Viral P24 pg/ml” value (HIV [1]; Experiment #3, 5 μM WR-1065, 72 h) of the same compound?
**A.** 10,293.7 pg/ml

**Q.** And the “HIV Viral P24” value (HIV [1]; Experiment #3, 10 μM WR-1065, 72 h)?
**A.** 911.2 pg/mL

**Q.** And the “HIV Viral P24” value (HIV [1]; Experiment #3, 33 μM WR-1065, 72 h)?
**A.** 503.2 pg/mL

**Q.** And the “HIV Viral P24” value (HIV [1]; Experiment #3, 66 μM WR-1065, 72 h)?
**A.** 33.2 pg/mL

**Q.** What about the inhibition at 1000 µM (HIV [1]; Human immunodeficiency virus 1, PBMC, 72 h, Experiment #1, 1000 μM WR-1065, 72 h, read-out: Estimated percent inhibition) of the same compound?
**A.** ~100%

**Q.** And the inhibition at 100 µM (HIV [1]; Human immunodeficiency virus 1, PBMC, 72 h, Experiment #2, 100 μM WR-1065, 72 h, read-out: Estimated percent inhibition)?
**A.** 94.9%

**Q.** What about the inhibition at 330 µM (HIV [1]; Human immunodeficiency virus 1, PBMC, 72 h, Experiment #2, 330 μM WR-1065, 72 h, read-out: Estimated percent inhibition) of the same compound?
**A.** 94.7%

**Q.** And the inhibition at 1000 µM (HIV [1]; Human immunodeficiency virus 1, PBMC, 72 h, Experiment #2, 1000 μM WR-1065, 72 h, read-out: Estimated percent inhibition)?
**A.** 94.9%

**Q.** And the inhibition at 5 µM (HIV [1]; Human immunodeficiency virus 1, PBMC, 72 h, Experiment #3, 5 μM WR-1065, 72 h, read-out: Estimated percent inhibition)?
**A.** 76.8%

**Q.** What about the inhibition at 10 µM (HIV [1]; Human immunodeficiency virus 1, PBMC, 72 h, Experiment #3, 10 μM WR-1065, 72 h, read-out: Estimated percent inhibition) of the same compound?
**A.** 98%

**Q.** And the inhibition at 33 µM (HIV [1]; Human immunodeficiency virus 1, PBMC, 72 h, Experiment #3, 33 μM WR-1065, 72 h, read-out: Estimated percent inhibition)?
**A.** 98.9%

**Q.** What about the inhibition at 66 µM (HIV [1]; Human immunodeficiency virus 1, PBMC, 72 h, Experiment #3, 66 μM WR-1065, 72 h, read-out: Estimated percent inhibition) of the same compound?
**A.** 99.9%

**Q.** And the “suppression of HIV replication” value (HIV [1]; concentration of less than 100 μM)?
**A.** > 99.9%

**Q.** And the “duration of action (anti-HIV, cell culture)” value (HIV [1])?
**A.** long duration of action

**Q.** What about the “% Viable Cells (compared to control)” value (PHA blasts; 1 μM) of the same compound?
**A.** 83%

**Q.** And the “% Viable Cells (compared to control)” value (PHA blasts; 5 μM)?
**A.** 82%

**Q.** What about the “% Viable Cells (compared to control)” value (PHA blasts; 10 μM) of the same compound?
**A.** 90%

**Q.** What about the “% Viable Cells (compared to control)” value (PHA blasts; 50 μM) of the same compound?
**A.** 89%

**Q.** What about the “% Viable Cells (compared to control)” value (PHA blasts; 100 μM) of the same compound?
**A.** 63%

**Q.** What about the “% Viable Cells (compared to control)” value (PHA blasts; 500 μM) of the same compound?
**A.** 73%

**Q.** And the “% Viable Cells (compared to control)” value (PHA blasts; 1000 μM)?
**A.** 30%

**Q.** And the HIV-1 growth inhibition (HIV-1BZ-167; 103-206 μM WR-1065)?
**A.** ≥ 94%

**Q.** What about the inhibition at 26 µM (HIV-1BZ-167; Human immunodeficiency virus 1, 26 μM WR-1065, mean SE, n=5) of the same compound?
**A.** 65 ± 7.5%

**Q.** And the inhibition at 50 µM (HIV-1BZ-167; Human immunodeficiency virus 1, 50 μM WR-1065, n=5)?
**A.** 83.2 ± 18.6%

**Q.** And the inhibition at 52 µM (HIV-1BZ-167; Human immunodeficiency virus 1, 52 μM WR-1065, n=7)?
**A.** 88.7 ± 5.5%

**Q.** And the inhibition at 100 µM (HIV-1BZ-167; Human immunodeficiency virus 1, 100 μM WR-1065, n=5)?
**A.** 92 ± 11%

**Q.** What about the inhibition at 103 µM (HIV-1BZ-167; Human immunodeficiency virus 1, 103 μM WR-1065, n=8) of the same compound?
**A.** 93.9 ± 3.1%

**Q.** And the IC50 (HIV-1BZ-167; Human immunodeficiency virus 1, dose-response 2.5-103.0 μM, mean±SE)?
**A.** 3.1 ± 0.6 µM

**Q.** What about the “effect on antiretroviral activity of 0.8-3.0 μM AZT” value (HIV-1BZ-167; WR-1065 at 26 μM) of the same compound?
**A.** did not inhibit

**Q.** What about the 14-day survival (TK6 cells; continuous 50-100 μM WR-1065) of the same compound?
**A.** < 20%

**Q.** What about the 14-day survival (TK6 cells; continuous 50-100 μM WR-1065, 10 mg/ml aminoguanidine added from day 4) of the same compound?
**A.** 70-80%

**Q.** What about the “intra-cellular concentration necessary to reduce HIV replication by ~100%” value (HIV [7]) of the same compound?
**A.** ~50 picomoles/10^6 cells

**Q.** And the antiviral efficacy (adenovirus)?
**A.** has antiviral efficacy

**Q.** What about the antiviral efficacy (influenza) of the same compound?
**A.** has antiviral efficacy

**Q.** What about the “Concentration (μg/ml), plasma” value ([8]; 1 h after administration) of the same compound?
**A.** 6.21 µg/mL

**Q.** And the “Concentration (μg/ml), plasma” value ([8]; 2 h after administration)?
**A.** 4.14 µg/mL

**Q.** And the “Concentration (μg/ml), plasma” value ([8]; 6 h after administration)?
**A.** 2.07 µg/mL

**Q.** And the T1/2 [4, 10]?
**A.** ≥ 2 h

**Q.** And the peak plasma level [4, 10]?
**A.** ~100 µM

**Q.** And the bioavailability [4, 11]?
**A.** high

**Q.** And the tissue distribution [4, 11]?
**A.** widespread

**Q.** And the cell survival (PHA-blasts [9]; 26 μM WR-1065)?
**A.** 37%

**Q.** And the cell survival (PHA-blasts [9]; 50 μM WR-1065)?
**A.** 55±22%

**Q.** And the cell survival (PHA-blasts [9]; 52 μM WR-1065)?
**A.** 49%

**Q.** What about the cell survival (PHA-blasts [9]; 100 μM WR-1065) of the same compound?
**A.** 42±18%

**Q.** And the cell survival (PHA-blasts [9]; 103 μM WR-1065)?
**A.** 78%
